This note sets out measurements from patent publication US20150015931A1, “ELECTROWETTING FLUIDS” (Merck Patent GmbH, priority 2012, published 2015).

A short description of series [1]: Solubility testing: saturation concentration of dye in non-polar solvent. The note with it: for Saturation concentration (%): in decane.
Protocol: A typical solubility test consists of one or more dyes dissolved in a suitable non-polar (hydrophobic) solvent, for example decane, at a concentration of 20% by weight for each dye. Samples are first vortex mixed for approximately 3 minutes and sonicated at 50° C. br 30 mins. They are then stirred for approximately 16 hours to ensure complete saturation. After stirring, samples are left to stand at room temperature for 2 hours before filtering through a 200 nm PTFE filter to give a saturated solution of dye in solvent.
The saturation concentrations and/or absorbance data for cells of varying thickness can be derived using the Beer-Lambert law:
Where A is absorbance (arbitrary unit) e=Molar extinction coefficient, c=Concentration (mol/l), l=path length (cm).
(§1) The absorbance is measured using a Hitachi UV3310 UV-vis spectrophotometer.
The nature of series [2]: Absorbance of the saturated dye solution at 5 micron thickness (Beer-Lambert law, UV-vis). It is filed as physicochemical. The note with it: in decane; for Absorbance (theoretical), at 5 micron thickness: Table 8.
Protocol: as §1
[3] abbreviates: at the wavelength printed in the row, Table 5.
[4] abbreviates: at the wavelength printed in the row, Table 6b.
[5] abbreviates: at the wavelength printed in the row.

Consider `CCCCCCCCN(CCCCCCCC)c1ccc(/N=N/c2snc(C)c2C#N)c(NC(C)=O)c1` [Dye 11, N-(2-((4-Cyano-3-methylisothiazol-5-yl)diazenyl)-5-(dioctylamino)phenyl)acetamide], for which, in series [1], the “Dye saturation concentration % in Decane as solvent” value amounted to 0.19%, the “Dye saturation concentration % in (Decane/dye 2 as solvent)” value stood at 0.62% and the “Dye saturation concentration % in (Decane/dye 12 as solvent)” value came to 0.41%. In addition, the “Saturation wt % in decane” value in series [1] (Table 3 Magenta Dyes) was 0.19 wt %.
On to `Cc1ccc(C)c(N=Nc2cc(C)c(N=Nc3c(O)ccc4ccccc34)cc2C)c1` [Oil Red O, reference compound], for which, in series [1], the “Dye saturation concentration % in Decane as solvent” value is given as 1.17%, the “Dye saturation concentration % in (Decane/dye 2 as solvent)” value was determined as 1.91% and the “Dye saturation concentration % in (Decane/dye 12 as solvent)” value came out at 1.49%. In addition, the “Saturation concentration (%)” value in series [1] (Table 5) is recorded as 1.615%. The “Absorbance at wavelength, at 5 micron thickness” value (from here on “Absorbance at wavelength”) in series [2] (setting [3]) is 0.2594.
Turning to `CCCCCCCCN(CCCCCCCC)c1ccc(/N=N/c2cc(OCC(CC)CCCC)c(/N=N/c3ccc([N+](=O)[O-])cc3[N+](=O)[O-])cc2OCC(CC)CCCC)c(C)c1` (stereo not shown) [Dye 1a, 4-((E)-(4-((E)-(2,4-Dinitrophenyl)diazenyl)-2,5-bis(2-ethylhexyloxy)phenyl)diazenyl)-3-methyl-N,N-dioctylaniline], the “Saturation wt % in decane” value in series [1] (Table 1 Blue/Black Dyes) amounted to 100 wt %. The “Saturation concentration (%)” value in series [1] (Table 7) is recorded as 1.000%. For the same compound, in series [2] (at the wavelength printed in the row, Table 7), the “Absorbance (theoretical), at 5 um thickness” value is reported as 0.188.
Consider `CCCCCCCCN(CCCCCCCC)c1ccc(/N=N/c2ccc([N+](=O)[O-])cc2)c(C)c1` [Dye 15, (E)-3-Methyl-4-((4-nitrophenyl)diazenyl)-N,N-dioctylaniline], for which the “Saturation wt % in decane” value in series [1] (Table 4 Yellow Dyes) is 10.50 wt %. Moreover, the “Saturation concentration (%)” value in series [1] (Table 5) was found to be 8.58%. Further, in series [2] (setting [3]), the “Absorbance at wavelength” value was 2.765.
Consider `CCCCCCCCCCCCCCCCCCN(CCCCCCCCCCCCCCCCCC)c1cc(NC(C)=O)c(/N=N/c2c(C#N)cc([N+](=O)[O-])cc2C#N)cc1OC` [Dye 8, N-(2-((2,6-Dicyano-4-nitrophenyl)diazenyl)-5-(dioctadecylamino)-4-methoxyphenyl)acetamide], for which, in series [1], the “Dye saturation concentration % in Decane as solvent” value came to 0.003%, the “Dye saturation concentration % in (Decane/dye 2 as solvent)” value came to 0.18% and the “Dye saturation concentration % in (Decane/dye 12 as solvent)” value was 0.18%. Besides, the “Saturation wt % in decane” value in series [1] (Table 2 Cyan Dyes) came to 0.003 wt %.
Turning to `CCCCC(CC)COc1cc(/N=N/c2ccc([N+](=O)[O-])cc2[N+](=O)[O-])c(OCC(CC)CCCC)cc1/N=N/c1ccc(N(CC(CC)CCCC)CC(CC)CCCC)cc1C` (stereo not shown) [Dye 1b, 4-((E)-(4-((E)-(2,4-Dinitrophenyl)diazenyl)-2,5-bis(2-ethylhexyloxy)phenyl)diazenyl)-3-methyl-N,N-di-(2-ethylhexyl)aniline], the “Saturation wt % in decane” value in series [1] (Table 1 Blue/Black Dyes) is listed as 17.19 wt %.
On the same count and under the same terms, to `CCCCCCCCCCCCN(CCC(C)CC(C)(C)C)c1ccc(/N=N/c2cc(OCC(CC)CCCC)c(/N=N/c3ccc([N+](=O)[O-])cc3[N+](=O)[O-])cc2OCC(CC)CCCC)c(C)c1` (stereo not shown) [Dye 1g, 4-((E)-(4-((E)-(2,4-Dinitrophenyl)diazenyl)-2,5-bis(2-ethylhexyloxy)phenyl)diazenyl)-3-methyl-N-dodecyl-N-(3,5,5-trimethylhexyl)aniline] belongs 16.67 wt %.
On to `CCCCCCCCCCCCCCc1ccc(/N=N/c2c(C)c(C#N)c(=O)n(CC(CC)CCCC)c2O)cc1` (stereo not shown) [Dye 12, (E)-1-(2-Ethylhexyl)-6-hydroxy-4-methyl-2-oxo-5-((4-tetradecylphenyl)diazenyl)-1,2-dihydropyridine-3-carbonitrile], for which the “Saturation wt % in decane” value in series [1] (Table 4 Yellow Dyes) amounted to 1.03 wt %. The “Saturation concentration (%)” value in series [1] (Table 6b) is 1.03%. Moreover, the “Absorbance at wavelength” value in series [2] (setting [4]) came to 0.332.
In the case of `CCCCCCCCCCCCCCc1ccc(/N=N/c2c(C)cc(=O)n(CC(CC)CCCC)c2O)cc1` (stereo not shown) [Dye 13, (E)-1-(2-ethylhexyl)-6-hydroxy-4-methyl-5-((4-tetradecylphenyl)diazenyl)pyridin-2(1H)-one], the “Saturation wt % in decane” value in series [1] (Table 4 Yellow Dyes) stood at 3.72 wt %. Besides, in series [1] (Table 6b), the “Saturation concentration (%)” value is on record as 3.72%. The “Absorbance at wavelength” value in series [2] (setting [4]) is recorded as 0.915.
As for `CCCCc1ccc(/N=N/c2ccc(N(CCCC)CCCC)cc2)cc1` [Dye 14], the “Saturation wt % in decane” value in series [1] (Table 4 Yellow Dyes) is listed as 9.95 wt %.
In the case of `Cc1ccccc1/N=N/c1ccc(/N=N/c2c(O)ccc3ccccc23)c(C)c1` [Solvent Red 24, reference compound], the “Saturation concentration (%)” value in series [1] (Table 5) worked out at 0.6%. Besides, in series [2] (setting [3]), the “Absorbance at wavelength” value amounted to 0.1579.
As for `CCCCNc1ccc(NCCCC)c2c1C(=O)c1ccccc1C2=O` [Solvent Blue 35, reference compound], in series [1], the “Dye saturation concentration % in Decane as solvent” value was determined as 0.33%. Also, the “Dye saturation concentration % in (Decane/dye 2 as solvent)” value in series [1] worked out at 0.69%. Also, the “Dye saturation concentration % in (Decane/dye 12 as solvent)” value in series [1] was determined as 0.62%. In addition, the “Saturation concentration (%)” value in series [1] (Table 5), in series [1] (Table 6a) and in series [1] (Table 8) was 0.385% throughout. Besides, the “Absorbance at wavelength” value is 0.0531 in series [2] (646 nm, Table 6a) and 0.044 in series [2] (setting [3]). The “Absorbance (theoretical), at 5 micron thickness” value in series [2] (setting [5]) is 0.0531.
Turning to `CCCCCNc1ccc(NCCCCC)c2c1C(=O)c1ccccc1C2=O` [Oil Blue N, reference compound], the “Dye saturation concentration % in Decane as solvent” value in series [1] came out at 0.62%. For the same compound, the “Dye saturation concentration % in (Decane/dye 2 as solvent)” value in series [1] came to 1.34%. The “Dye saturation concentration % in (Decane/dye 12 as solvent)” value in series [1] turned out to be 1.14%. The “Saturation concentration (%)” value in series [1] (Table 5) worked out at 0.657%; in series [1] (Table 6a), 0.657%; in series [1] (Table 8), 0.66%. Besides, the “Absorbance at wavelength” value in series [2] (646 nm, Table 6a) was 0.0938; in series [2] (setting [3]) it was 0.114. For the same compound, the “Absorbance (theoretical), at 5 micron thickness” value in series [2] (setting [5]) turned out to be 0.0938.
In the case of `CCCCCCCCCCCCCCN(CCCCCCCCCCCCCC)c1ccc(/N=N/c2cc(OCC(CC)CCCC)c(/N=N/c3ccc([N+](=O)[O-])cc3[N+](=O)[O-])cc2OCC(CC)CCCC)c(C)c1` (stereo not shown) [Dye 1f, 4-((E)-(4-((E)-(2,4-Dinitrophenyl)diazenyl)-2,5-bis(2-ethylhexyloxy)phenyl)diazenyl)-3-methyl-N,N-di-n-tetradecylaniline], in series [1] (Table 1 Blue/Black Dyes), the “Saturation wt % in decane” value was found to be 15.2 wt %.
With `CCCCCCCCCCCCN(CCCCCCCCCCCC)c1ccc(/N=N/c2cc(OCC(CC)CCCC)c(/N=N/c3ccc([N+](=O)[O-])cc3[N+](=O)[O-])cc2OCC(CC)CCCC)c(C)c1` (stereo not shown) [Dye 1e, 4-((E)-(4-((E)-(2,4-Dinitrophenyl)diazenyl)-2,5-bis(2-ethylhexyloxy)phenyl)diazenyl)-3-methyl-N,N-di-n-dodecylaniline], the “Saturation wt % in decane” value in series [1] (Table 1 Blue/Black Dyes) is 5.17 wt %.
With `CCCCC(CC)COc1cc(/N=N/c2ccc([N+](=O)[O-])cc2[N+](=O)[O-])c(OCC(CC)CCCC)cc1/N=N/c1ccc(N(CCC(C)CC(C)(C)C)CCC(C)CC(C)(C)C)cc1C` (stereo not shown) [Dye 1c, 4-((E)-(4-((E)-(2,4-Dinitrophenyl)diazenyl)-2,5-bis(2-ethylhexyloxy)phenyl)diazenyl)-3-methyl-N,N-d i-(3,5,5-trimethylhexyl)aniline], the “Saturation wt % in decane” value in series [1] (Table 1 Blue/Black Dyes) turned out to be 3.53 wt %.
On the same count and under the same terms, in the case of `CCCCCCCCCCN(CCCCCCCCCC)c1ccc(/N=N/c2cc(OCC(CC)CCCC)c(/N=N/c3ccc([N+](=O)[O-])cc3[N+](=O)[O-])cc2OCC(CC)CCCC)c(C)c1` (stereo not shown) [Dye 1d, 4-((E)-(4-((E)-(2,4-Dinitrophenyl)diazenyl)-2,5-bis(2-ethylhexyloxy)phenyl)diazenyl)-3-methyl-N,N-di-n-decylaniline] it was 2.39 wt %.
